Results reported in US9670159B2, “Pharmaceutical composition of a papillomavirus inhibitor” (AVIRAGEN THERAPEUTICS, INC., priority 2012, dated 2017).

Tests used:
[1] = Solubility of the potassium salt in comparison with the hydrochloride; format: physicochemical; details: potassium salt in comparison with its hydrochloride
[2] = target: interaction between the E1 and E2 proteins of HPV11/HPV6 (Human papillomavirus 11, UniProt P04014+P04015); test: E1/E2 interaction test (luciferase reporter, mammalian two-hybrid type); format: cell-based
Description: (§1) In the present invention two types of tests are used to study the biological activity of compounds against papillomavirus. A first test (“E1/E2 interaction test”) evaluates the interaction between the E1 and E2 proteins of HPV (human papillomavirus) in human cells. A second test (“replication test”) measures the replication of viral genomic DNA in human cells.
The test of interaction between E1 and E2 is similar to the tests often called “mammalian two-hybrid” tests. It is based on co-transfection of a reporter vector containing DNA binding sites for the E2 protein of HPV in the promoter controlling expression of the reporter gene, and of expression vectors coding the E1 and E2 proteins of HPV, the E1 protein being fused to the VP16 transactivation domain. […]
Compound (Ia), either in solution or in pharmaceutical compositions (a), (d), (f) and (g), was evaluated for its inhibitory activity on the interaction between the E1 and E2 proteins of HPV11/HPV6 in human cell lines derived from renal epithelial cells or cervical carcinoma cells. Various doses (0.25-40 μM) were incubated in the cell medium for 2 days after transfection, and luciferase activity was measured to determine the IC50 of the compound on the interaction between the E1 and E2 proteins of the HPVs.

[3] = test system: E1 and E2 protein-dependent viral replication of HPV11; test: Replication test (replicon reporter vector, luciferase); format: cell-based; details: Homo sapiens, read-out: IC50 on E1 and E2 protein-dependent viral replication of HPV11 in cells
Description: as §1
The test of replication of viral genomic DNA is based on the co-transfection of a reporter vector containing an HPV origin of replication (ori) and expression vectors coding the E1 and E2 proteins of HPV. It makes it possible to follow the set of biological functions of E1 and E2 required for replication of the genome of the HPVs. […]
Compound (Ia), either in solution or in pharmaceutical compositions (a), (d), (f) and (g), was also evaluated for its inhibitory activity on the E1- and E2-dependent viral replication of HPV11/HPV6 in human cell lines derived from renal epithelial cells or cervical carcinoma cells. Various doses (0.25-40 μM) were incubated in the cell medium for 2 to 6 days after transfection, and luciferase activity was measured using a luminometer to determine the IC50 of the compound on the replication of the genome of the HPVs.

[4] = Percutaneous absorption in vitro on human skin mounted on a Franz cell; format: in vitro ADME; details: 8 hours of diffusion
Procedure: The percutaneous absorption of compound (Ia) from pharmaceutical composition (g) was studied after the application of a dose of 10 mg/cm^2 on human skin mounted on a Franz cell. This study was carried out by comparing percutaneous absorption on healthy skin and on delaminated skin, as a model of the weak keratinization of the anogenital region.
After 8 or 24 hours of exposure to pharmaceutical composition (g), the quantity of compound (Ia) present in each skin layer (stratum corneum, epidermis, dermis) and that having crossed the skin (receiving fluid) is quantified by HPLC.
The stratum corneum of the non-delaminated skin samples is removed from the epidermis by peeling with adhesive. The latter is applied to the skin surface under constant and controlled pressure.

Sequence of interaction between the E1 and E2 proteins of HPV11/HPV6 (P04014 whole entry): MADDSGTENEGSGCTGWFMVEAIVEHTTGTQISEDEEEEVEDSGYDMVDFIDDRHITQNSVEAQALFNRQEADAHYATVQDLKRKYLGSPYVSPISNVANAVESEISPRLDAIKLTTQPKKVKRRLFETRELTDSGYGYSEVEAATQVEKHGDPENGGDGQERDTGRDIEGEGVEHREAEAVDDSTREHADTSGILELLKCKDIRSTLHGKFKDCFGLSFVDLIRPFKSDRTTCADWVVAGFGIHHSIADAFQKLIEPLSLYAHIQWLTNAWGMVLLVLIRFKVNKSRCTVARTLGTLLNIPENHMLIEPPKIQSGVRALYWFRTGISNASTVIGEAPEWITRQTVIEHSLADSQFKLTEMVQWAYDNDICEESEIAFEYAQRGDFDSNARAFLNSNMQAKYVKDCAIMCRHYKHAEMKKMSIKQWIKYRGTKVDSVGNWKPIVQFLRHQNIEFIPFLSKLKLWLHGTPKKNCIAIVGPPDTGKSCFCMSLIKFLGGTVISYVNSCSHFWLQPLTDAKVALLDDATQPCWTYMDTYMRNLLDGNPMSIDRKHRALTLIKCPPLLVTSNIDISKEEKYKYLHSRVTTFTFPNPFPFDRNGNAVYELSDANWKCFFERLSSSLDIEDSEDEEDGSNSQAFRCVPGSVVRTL
Sequence of interaction between the E1 and E2 proteins of HPV11/HPV6 (P04015 whole entry): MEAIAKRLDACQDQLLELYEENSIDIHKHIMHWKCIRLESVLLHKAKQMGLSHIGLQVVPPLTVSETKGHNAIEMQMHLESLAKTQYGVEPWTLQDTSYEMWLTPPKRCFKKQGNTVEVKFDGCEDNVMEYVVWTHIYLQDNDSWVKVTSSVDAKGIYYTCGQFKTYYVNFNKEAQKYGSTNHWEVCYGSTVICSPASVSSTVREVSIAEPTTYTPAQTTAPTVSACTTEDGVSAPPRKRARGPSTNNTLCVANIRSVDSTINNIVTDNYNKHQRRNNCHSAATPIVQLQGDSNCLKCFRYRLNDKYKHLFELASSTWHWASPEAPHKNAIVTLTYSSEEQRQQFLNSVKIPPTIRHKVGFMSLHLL

## COc1cc(CC(=O)NN(c2ccc(Cc3ccccc3)cc2)c2c(C)cccc2N2CCCCC2)c(Br)cc1C(=O)O [Compound (Ia), 4-[N′-(4-benzyl-phenyl)-N′-(2-methyl-6-piperidin-1-yl-phenyl)-hydrazinocarbonylmethyl]-5-bromo-2-methoxy-benzoic acid]
[1]
  solubility: increases the solubility
[2]
  IC50: ~1000 nM
[3]
  IC50: ~1000 nM
[4]; delaminated skin
  local concentration in the skin relative to the IC50 measured in cellulo: 1000 times
[4]; healthy skin
  local concentration in the skin relative to the IC50 measured in cellulo: 100 times
